Consider one compound from US12084411B2, “Hinokitiol analogues, methods of preparing and pharmaceutical compositions thereof” (The Board of Trustees of the University of Illinois, priority 2018, dated 2024).

The structures appear in SMILES notation.

A short description of data set [1]: Iron (II) binding affinity, ferrozine competition assay. As to the method: Specifically, the association constant for iron (II) was determined by a ferrozine competition assay (KA of ferrozine=3.65×10^15) (60). FeCl2 (25 μM) was pre-mixed with ferrozine (75 μM) in a 25 mM MES/Tris buffer at pH=7.0 containing 62.5 mM sodium ascorbate. Then increasing concentrations of small molecule (from 40X stocks in DMSO) were added to the indicated final concentrations. The solutions were allowed to equilibrate for 24 hours before reading of the absorbance at 562 nm. […] The system was allowed to equilibrate overnight, and the absorbance corresponding to the Fe(chelator)3 complex was determined. The EC50 values for each chelator were calculated by a nonlinear curve fit (Hill1) on OriginPro by plotting the absorbance vs. concentration of titrant, and the KA for each complex was determined from the equation: KA, ligand=(KA, competitor*[EC50])/[ligand] where the ligand is the molecule originally bound to iron, and the competitor is the competing chelator.

In a further data set the target is T1, ferritin (Homo sapiens, UniProt P02792+P02794).
T1 construct: endogenous in cells; host or cells: wild type Caco-2 monolayers (human, ATCC HTB-37); immunoprecipitated with anti-FTL1 on Protein G PLUS-Agarose beads
T1 sequence (P02792 2-175 limits assumed): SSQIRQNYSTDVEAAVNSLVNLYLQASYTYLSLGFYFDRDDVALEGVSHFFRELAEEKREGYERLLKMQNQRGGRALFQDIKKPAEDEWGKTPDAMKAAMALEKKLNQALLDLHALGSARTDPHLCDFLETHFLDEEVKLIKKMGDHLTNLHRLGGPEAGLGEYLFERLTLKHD
T1 sequence (P02794 whole entry): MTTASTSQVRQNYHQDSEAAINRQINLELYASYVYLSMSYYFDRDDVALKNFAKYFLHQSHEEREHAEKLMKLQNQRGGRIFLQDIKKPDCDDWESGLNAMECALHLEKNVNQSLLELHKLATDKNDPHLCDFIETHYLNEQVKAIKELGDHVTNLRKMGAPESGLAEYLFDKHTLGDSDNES
The data set can be described thus: Removal of 55Fe from ferritin. To be noted: buffered solution, 2.5 ng ferritin/mL. It counts as biochemical. As to the method: The immunoprecipitated ferritin was diluted to 2.5 ng ferritin/mL (determined by ELISA as described below) in 50 mM MES/Tris buffer at pH=7.0, and increasing concentrations of hinokitiol were added (from 1000X stock in DMSO) to give the final indicated concentrations. The suspension was mixed at room temperature for 2 hours.

Data set [2] in a line: Electrochemical studies (cyclic voltammetry) of iron:chelator complexes. It counts as physicochemical. As to the method: Potentiostatic electrochemical methods were performed on a CH Instruments electrochemical workstation (model 760 C, Austin, TX) on a three-electrode cell. Hg working electrodes were fabricated by the electrodeposition of Hg on a Pt wire utilizing the procedure previously described by Barton et al. (70). All experiments were reported versus a Ag/AgCl reference electrode and utilized a graphite auxiliary electrode. The electrolyte was sparged with UHP argon before measurements. A positive pressure of argon was maintained throughout the experiments.
Unless otherwise indicated, experiments used a 0.1 M Tris buffer in H2O or 1:1 MeOH:H2O at pH=7.2 using HNO3 and KOH as titrant. Unless otherwise indicated, experiments used a 100 mV/s scan rate, 100 μM Fe(NO3)3, and 500 μM small molecule. All redox potentials are recorded versus a normal hydrogen electrode (NHE).
The estimated redox potential of Fe(Hino)n was determined through extrapolation of the best-fit line of the determined redox potentials of Fe(Hino)n as a function of the concentration of MeOH in the 0.1 M Tris buffer at pH=7.2.

The subject of another data set is normal Caco-2 monolayers. The data set can be described thus: Transepithelial iron transport in normal Caco-2 monolayers. It counts as cell-based, Human. As to conditions: same concentration as in deficient system. (In general: Caco-2 cells form a polarised layer with tight junctions and transporters.)
For the next data set, the system named is shDMT1 Caco-2 monolayers. Description: Imaging of cytosolic iron with calcein green in Caco-2 monolayers. It counts as cell-based, Human. To be noted: 25 μM FeCl3, 1 hour. As to the method: Temporal live cell imaging of labile iron levels in shDMT1 Caco-2 monolayers was performed after staining of Caco-2 monolayers with calcein green-AM (5 μM) in the apical and basolateral liquid for 30 minutes in pH=7.4 DMEM. […] Final volume administered was 1.5 mL/kg for each mouse, correcting for individual body weight. […] Mice were humanely sacrificed by isoflurane overdose after 6 hours and blood was collected by cardiac puncture. Radioactivity was quantified by gamma counting and calculated as the percentage of gavaged dose (±SEM). Experiments were performed with 4 genotyped-matched mice/day; preliminary analysis determined there were no gender effects on uptake of ^59Fe after intragastric gavage; mixed genders were used in the experiments shown.

The nature of data set [3]: WST-8 toxicity in MEL cells. It counts as cell-based, mouse. To be noted: mouse, wild type MEL cells; Wild Type MEL, WST-8 assay after ≥24 hours of incubation. For orientation: Tetrazolium dyes change colour on reduction, which living cells bring about.
Method: Determination of small molecule-mediated toxicity in Caco-2, MEL, and/or J774 cells was performed according to manufacturer instructions using a WST-8 kit (Cayman Chemical 10010199) similar to previously reported (76) using a 1000× stock of the indicated small molecule in DMSO to give the indicated final concentration.
For another data set, the system named is MEL. Description: WST-8 toxicity in MEL cells. It counts as cell-based, mouse. To be noted: MEL cells, three days, 1 μM.
Another data set relates to TMEM14CΔ MEL cells. The data set can be described thus: Hemoglobinization of TMEM14C-deficient MEL cells. It counts as cell-based, mouse. To be noted: 1 μM. As to the method:
Cells were then incubated at 37° C. for 72 hours unless otherwise noted. […] Hemoglobinized MEL cells were quantified three days after DMSO induction through o-dianisidine staining similar to previously reported (74). Cells were centrifuged three days after induction and rinsed with PBS. […] Cells were then imaged on an AXIO Zoom […] microscope to obtain color images. The number of stained cells were then quantified via ImageJ analysis and compared to the number of total cells in each image. To determine that hinokitiol requires DMSO induction for hemoglobinization, 2% DMSO was not added at the beginning of the experiment before a 72-hour incubation and o-dianisidine staining.

For the next data set, the system named is FPN-deficient mice. Description: Acute injection of hinokitiol in flatiron mice, tissue iron. It counts as in vivo. To be noted: 4 hours. As to the method:
FIGS. 26A-26E show the results of acute injection of Hinokitiol in flatiron mice. Wild-type (+/+) and I (ffe/+) mice were administered hinokitiol by IP injection and were sacrificed after 4 h to measure iron content. (A) presents means f SEM (n=48/group). (B)-(E) present means±SEM (n=2/group). * P≤0.05, ** P≤0.005, and *** P≤0.001.
To characterize the effects of hinokitiol on iron mobilization and distribution in flatiron mice, hinokitiol was administered with increasing doses (1-50 mg/kg) via intraperitoneal (IP) injection. Mice were euthanized 4 hours post-administration, and blood and a range of tissues were collected. […] Total iron in a variety of tissues including liver and spleen was further measured by inductively coupled plasma mass spectrometry (ICP-MS).

Method for normal Caco-2 monolayers: Media from differentiated Caco-2 monolayers (P25-50, 21-28 days post seeding) grown on PET inserts in 6-well plates was aspirated, and monolayers were rinsed with PBS. […] The monolayers were then incubated for four hours at 37° C. unless otherwise noted. A 100 μL aliquot of the basolateral fluid was removed, diluted in scintillation cocktail, and radioactivity was determined on a liquid scintillation counter to quantify relative amounts of ^55Fe transport. To determine intracellular ^55Fe, the basolateral and apical media was removed, and the monolayer was rinsed with PBS (×2). The cells were then lysed with 500 μL of 200 mM NaOH with nutator mixing overnight, and radioactivity was determined on a liquid scintillation counter after diluting the cell lysate in scintillation cocktail. All values were normalized to shControl monolayers unless otherwise noted. Absolute iron levels were determined through calibration of ^55Fe radioactivity levels with known standards and average mg of protein per membrane was determined by protein lysis with RIPA buffer containing protease inhibitors and quantified through a BCA kit according to manufacturer instructions.

For orientation: EC90 means the concentration at which the effect reaches the 90% level. Lower therefore signals an effect from little substance. With `CC(C)c1cccc(=O)c(O)c1` [hinokitiol], the “KA for iron (II)” value in [1] (pH 7.0) is on record as 5.1×10^15; in data set [1] (pH 7.0, listed as Hinokitiol), 5.1 × 10^15. The “excess of hinokitiol relative to ferritin needed to remove iron” value on ferritin is reported as > 1,000,000 fold. Moreover, in [2] (Table 2, 0.1 M Tris, pH 7.2), the “E^0 1:1 MeOH:H2O” value is given as −211 mV vs. N.H.E. In [2] (extrapolation of E^01 vs. MeOH concentration), the “E^0 Aqueous, estimated from MeOH standard curve” value is listed as −361^¶ mV vs. N.H.E. In addition, the “effect on transepithelial iron transport in wild type system” value in the data set on normal Caco-2 monolayers is given as “negligible effects”. In addition, the “cytosolic labile iron (calcein green)” value with shDMT1 Caco-2 monolayers is “increased labile iron up to 5 μM”. The EC90 in [3] came out at 24 µM. Moreover, in the data set with MEL, the observable toxicity entry is “without observable toxicity”. Besides, the hemoglobinization result in the data set on TMEM14CΔ MEL cells was “did not promote hemoglobinization”. The “liver total iron (ICP-MS)” value in the data set on FPN-deficient mice (10 mg/kg IP) is recorded as “releases iron from the liver”. The liver non-heme iron entry with FPN-deficient mice (1-50 mg/kg IP) is reported as “dose-dependent decrease”. In addition, in the data set with FPN-deficient mice (IP), the “non-heme iron in other tissues” value is listed as “suggestive of reductions in non-heme iron”.
